In patent publication US8394848B2, “Compounds that modulate intracellular calcium” (Calcimedica, Inc., priority 2008, dated 2013):

System: JR251 or RBL cells
Assay: Store-operated calcium entry, either JR251 or RBL cells, or both
Assay type: cell-based
Method: The day prior to performing the assay, RBL-2H3 cells are plated in 50 μL of complete medium in a 384 well plate. Cells are grown at 37° C./6% CO2 overnight and grow to 50-60% confluence by the next day. On the assay day, 1.5 μM Fluo-4-AM dye (Invitrogen) in complete medium is added and incubated for 1 hour at RT. Cells are washed twice in Ca^2+-free HBSS buffer and 35 μL Ca^2+-free HBSS buffer is added to each well. 10 μL of a test compound prepared in a Ca^2+-free HBSS solution at 4.5× of the desired concentration is added to a well and incubated for 5 minutes at RT. 10 μL of thapsigargin prepared in a Ca^2+-free HBSS solution at 5.5× of the desired concentration (5.5 uM) is added to each well and incubated for an additional 25 minutes. The initial baseline fluorescence signal is measured with a FLIPR^384 (Molecular Devices) plate reader. 5 μL of 12× calcium in HBSS (12 mM) is added and changes in cellular fluorescence are measured with the FLIPR^384 plate reader. In each well, the change in the fluorescent signal as a function of time due to calcium entry into the cell is determined by calculating the difference between the fluorescent signal measured 7 seconds after calcium addition and the initial baseline fluorescence signal at time zero (t=0). This parameter is designated Upslope. The IC50 value is calculated as the concentration at which 50% of the Upslope is inhibited.

Row | Structure (SMILES) | IC50
1 | Cc1ccc(-c2csc(NC(=O)c3nc4ccccc4s3)c2C(=O)O)c(F)c1F [2-(benzo[d]thiazole-2-carboxamido)-4-(2,3-difluoro-4-methylphenyl)thiophene-3-carboxylic acid] | < 10 µM
2 | O=C(O)c1c(-c2ccc(Br)cc2)csc1NC(=O)C1Cc2ccccc2C1 [4-(4-bromophenyl)-2-(2,3-dihydro-1H-indene-2-carboxamido)thiophene-3-carboxylic acid] | < 10 µM
3 | O=C(Nc1scc(-c2ccc(Br)cc2)c1C(=O)O)OCc1ccccc1 [2-(benzyloxycarbonylamino)-4-(4-bromophenyl)thiophene-3-carboxylic acid] | < 10 µM
4 | Cc1ccc(-c2csc(NC(=O)c3cc4ccccc4o3)c2C(=O)O)c(F)c1F [2-(benzofuran-2-carboxamido)-4-(2,3-difluoro-4-methylphenyl)thiophene-3-carboxylic acid] | < 10 µM
5 | Cc1ccc(-c2csc(NC(=O)c3nc4cc(Br)ccc4o3)c2C(=O)O)c(F)c1F [2-(5-bromobenzo[d]oxazole-2-carboxamido)-4-(2,3-difluoro-4-methylphenyl)thiophene-3-carboxylic acid] | < 10 µM
6 | Cc1ccc(-c2csc(NC(=O)c3cc4c(C)nn(C)c4s3)c2C(=O)O)cc1 [2-(1,3-dimethyl-1H-thieno[2,3-c]pyrazole-5-carboxamido)-4-p-tolylthiophene-3-carboxylic acid] | < 10 µM
7 | O=C(Nc1scc(-c2cc3cccc(OCc4ccccc4)c3o2)c1C(=O)O)c1cc2ccccc2o1 [2-(benzofuran-2-carboxamido)-4-(7-(benzyloxy)benzofuran-2-yl)thiophene-3-carboxylic acid] | < 10 µM
8 | Cc1ccc(-c2csc(NC(=O)c3nc4ccc(Br)cc4o3)c2C(=O)O)c(F)c1F [2-(6-bromobenzo[d]oxazole-2-carboxamido)-4-(2,3-difluoro-4-methylphenyl)thiophene-3-carboxylic acid] | < 10 µM
9 | O=C(O)c1c(-c2ccc(Cl)cc2)csc1NC(=O)C(Cl)Cc1ccccc1Cl (stereo not shown) [2-(2-chloro-3-(2-chlorophenyl)propanamido)-4-(4-chlorophenyl)thiophene-3-carboxylic acid] | < 10 µM
10 | O=C(Nc1scc(-c2cc3cccc(O)c3o2)c1C(=O)O)c1nc2ccccc2s1 [2-(benzo[d]thiazole-2-carboxamido)-4-(7-hydroxybenzofuran-2-yl)thiophene-3-carboxylic acid] | < 10 µM
11 | O=C(Nc1scc(-c2ccc(F)c(O)c2F)c1C(=O)O)c1nc2ccccc2o1 [2-(benzo[d]oxazole-2-carboxamido)-4-(2,4-difluoro-3-hydroxyphenyl)thiophene-3-carboxylic acid] | < 10 µM
12 | Cc1cc(C(F)(F)F)ccc1-c1csc(NC(=O)c2nc3ccccc3o2)c1C(=O)O [2-(benzo[d]oxazole-2-carboxamido)-4-(2-methyl-4-(trifluoromethyl)phenyl)thiophene-3-carboxylic acid] | < 10 µM
13 | COc1cc(C)c(-c2csc(NC(=O)c3cc4ccccc4o3)c2C(=O)O)cc1C [2-(benzofuran-2-carboxamido)-4-(4-methoxy-2,5-dimethylphenyl)thiophene-3-carboxylic acid] | < 10 µM
14 | O=C(CCc1ccccc1)Nc1scc(-c2cc(F)c(Cl)cc2Cl)c1C(=O)O [4-(2,4-dichloro-5-fluorophenyl)-2-(3-phenylpropanamido)thiophene-3-carboxylic acid] | < 10 µM
15 | Cc1ccsc1C(=O)Nc1scc(-c2ccc(C(F)(F)F)cc2)c1C(=O)O [2-(3-methylthiophene-2-carboxamido)-4-(4-(trifluoromethyl)phenyl)thiophene-3-carboxylic acid] | < 10 µM
16 | COc1cccc2cc(-c3csc(NC(=O)c4cc5ccccc5o4)c3C(=O)O)oc12 [2-(benzofuran-2-carboxamido)-4-(7-methoxybenzofuran-2-yl)thiophene-3-carboxylic acid] | < 10 µM
17 | O=C(Nc1scc(-c2cccc(Cl)c2)c1C(=O)O)c1ccsc1 [4-(3-chlorophenyl)-2-(thiophene-3-carboxamido)thiophene-3-carboxylic acid] | < 10 µM
18 | O=C(O)c1c(-c2ccc(Br)cc2)csc1NC(=O)C(F)Cc1ccc(F)cc1Cl (stereo not shown) [4-(4-bromophenyl)-2-(3-(2-chloro-4-fluorophenyl)-2-fluoropropanamido)thiophene-3-carboxylic acid] | < 10 µM

Now from value to compound:

Row | IC50 | Structure (SMILES)
19 | < 10 µM | Cn1cnc(C(=O)Nc2scc(-c3ccc(Cl)cc3)c2C(=O)O)c1 [4-(4-chlorophenyl)-2-(1-methyl-1H-imidazole-4-carboxamido)thiophene-3-carboxylic acid]
20 | < 10 µM | O=C(Nc1scc(-c2ccc(Cl)cc2)c1C(=O)O)c1nc2c(F)cccc2s1 [4-(4-chlorophenyl)-2-(4-fluorobenzo[d]thiazole-2-carboxamido)thiophene-3-carboxylic acid]
21 | < 10 µM | O=C(Nc1scc(-c2ccc(Br)cc2)c1C(=O)O)c1ccnnc1 [4-(4-bromophenyl)-2-(pyridazine-4-carboxamido)thiophene-3-carboxylic acid]
22 | < 10 µM | O=C(NCC1CCCCC1)Nc1scc(-c2ccc(Cl)cc2)c1C(=O)O [4-(4-chlorophenyl)-2-(3-(cyclohexylmethyl)ureido)thiophene-3-carboxylic acid]
23 | < 10 µM | O=C(Nc1scc(-c2ccc(Cl)c(F)c2)c1C(=O)O)c1nc2cccc(F)c2o1 [4-(4-chloro-3-fluorophenyl)-2-(7-fluorobenzo[d]oxazole-2-carboxamido)thiophene-3-carboxylic acid]
24 | < 10 µM | O=C(Nc1scc(-c2ccc(Cl)cc2)c1C(=O)O)c1cc2c(Cl)cccn2n1 [4-(4-chlorophenyl)-2-(4-chloropyrazolo[1,5-a]pyridine-2-carboxamido)thiophene-3-carboxylic acid]
25 | < 10 µM | O=C(O)c1c(-c2ccc(Cl)cc2)csc1NC(=O)[C@H](F)Cc1ccccc1Cl [(R)-4-(4-chlorophenyl)-2-(3-(2-chlorophenyl)-2-fluoropropanamido)thiophene-3-carboxylic acid]
26 | < 10 µM | O=C(CCc1ccccc1F)Nc1scc(-c2ccc(Cl)cc2)c1C(=O)O [4-(4-chlorophenyl)-2-(3-(2-fluorophenyl)propanamido)thiophene-3-carboxylic acid]
27 | < 10 µM | O=C(Nc1scc(-c2ccc(Br)cc2)c1C(=O)O)/C(F)=C/c1ccccc1 [(Z)-4-(4-bromophenyl)-2-(2-fluoro-3-phenylacryl amido)thiophene-3-carboxylic acid]
28 | < 10 µM | O=C(O)c1c(-c2ccc(Cl)cc2)csc1NC(=O)C(F)Cc1c(Cl)cccc1Cl (stereo not shown) [4-(4-chlorophenyl)-2-(3-(2,6-dichlorophenyl)-2-fluoropropanamido)thiophene-3-carboxylic acid]
29 | < 10 µM | O=C(Nc1cccc(F)c1)Nc1scc(-c2ccc(Br)cc2)c1C(=O)O [4-(4-bromophenyl)-2-(3-(3-fluorophenyl)ureido)thiophene-3-carboxylic acid]
30 | < 10 µM | CC(C)(CC(=O)Nc1scc(-c2ccc(Cl)cc2)c1C(=O)O)c1ccccc1 [4-(4-chlorophenyl)-2-(3-methyl-3-phenylbutanamido)thiophene-3-carboxylic acid]
31 | < 10 µM | O=C(Nc1scc(-c2ccc(Br)cc2)c1C(=O)O)c1ccc2ccccc2n1 [4-(4-bromophenyl)-2-(quinoline-2-carboxamido)thiophene-3-carboxylic acid]
